ChEMBL document CHEMBL1123847, “Synthesis and structure-activity relationship of 1-aryl-6,8-difluoroquinolone antibacterial agents” (1987)
≈ marks a conversion by molar mass, not a printed value.

Key:
Staphylococcus aureus [1] = assay: In vitro antibacterial activity against Staphylococcus aureus CMX 686B; format: functional
Enterococcus faecium = assay: In vitro antibacterial activity against Streptococcus faecium ATCC 8043; format: functional
Pseudomonas aeruginosa [2] = assay: In vitro antibacterial activity against Pseudomonas aeruginosa K799/WT; format: functional
Escherichia coli [3] = assay: In vitro antibacterial activity against Escherichia coli Juhl; format: functional
Klebsiella aerogenes = assay: In vitro antibacterial activity against Enterobacter aerogenes ATCC 13048; format: functional
Acinetobacter = assay: In vitro antibacterial activity against Acinetobacter CMX 669; format: functional
Staphylococcus aureus [4] = assay: In vitro antibacterial activity against Staphylococcus aureus ATCC 6538P; format: functional
Pseudomonas aeruginosa [5] = assay: In vitro antibacterial activity against Pseudomonas aeruginosa 5007; format: functional
Klebsiella pneumoniae = assay: In vitro antibacterial activity against Klebsiella pneumoniae 8045; format: functional
[6] = test system: Staphylococcus epidermidis; assay: In vitro antibacterial activity against Staphylococcus epidermis 3519; format: functional
Streptococcus pyogenes = assay: In vitro antibacterial activity against Streptococcus pyogenes 930; format: functional
Escherichia coli [7] = assay: animal or person; conditions: in Mus musculus, po
Staphylococcus aureus [8] = assay: animal or person; conditions: in Mus musculus, po
Description: In vitro mouse protection test against Staphylococcus aureus NCTC 10649 (100 X LD50) (p.o. administration );Range is between (9.9-24.1)

Pseudomonas aeruginosa [9] = assay: […] against Pseudomonas aeruginosa 5007 (100 X LD50) (p.o. administration ); Range is between (6.8-26.2).; format: functional; conditions: po
Escherichia coli [10] = assay: animal or person; conditions: in Mus musculus, sc
Pseudomonas aeruginosa [11] = assay: In vitro mouse protection test against Pseudomonas aeruginosa 5007 (100 X LD50) (subcutaneous administration; Range is between (1.1-3.8).; format: functional; conditions: sc
Staphylococcus aureus [12] = assay: animal or person; conditions: in Mus musculus, sc
Description: In vitro mouse protection test against Staphylococcus aureus NCTC 10649 (100 X LD50) (s.c. administration );Range is between (1.0-2.5)

Pseudomonas aeruginosa [13] = assay: Compound was evaluated in vivo for antibacterial activity against Pseudomonas aeruginosa 5007 (100 X LD50);; format: functional
Staphylococcus aureus [14] = assay: Compound was evaluated in vivo for antibacterial activity against Staphylococcus aureus NCTC 10649 (100 X LD50) (s.c. administration); Range is between (1.0-2.5); format: functional; conditions: sc
Pseudomonas aeruginosa [15] = assay: Compound was evaluated in vivo for antibacterial activity against Pseudomonas aeruginosa 5007 (100 X LD50) (p.o. administration); Range is between (13.4-34.4); format: functional; conditions: po
Pseudomonas aeruginosa [16] = assay: Compound was evaluated in vivo for antibacterial activity against Pseudomonas aeruginosa 5007 (100 X LD50) (s.c. administration); Range is between (1.0-2.5); format: functional; conditions: sc
Escherichia coli [17] = assay: Compound was evaluated in vivo for antibacterial activity against Escherichia coli Juhl (100 X LD50) (p.o. administration); Range is between (2.8-6.5); format: functional; conditions: po
Escherichia coli [18] = assay: Compound was evaluated in vivo for antibacterial activity against Escherichia coli Juhl (100 X LD50) (s.c. administration); Range is between (0.3-1.3); format: functional; conditions: sc
Escherichia coli [19] = assay: Compound was evaluated in vivo for antibacterial activity against Escherichia coli Juhl (100 X LD50) (p.o. administration); Range is between (3.8-11.2); format: functional

Row | Compound | MIC (Escherichia coli [3]) [µg/mL] | MIC (Staphylococcus aureus [1]) [µg/mL] | MIC (Enterococcus faecium) [µg/mL] | MIC (Pseudomonas aeruginosa [2]) [µg/mL] | MIC (Klebsiella aerogenes) [µg/mL] | MIC (Acinetobacter) [µg/mL] | MIC (Staphylococcus aureus [4]) [µg/mL] | MIC (Pseudomonas aeruginosa [5]) [µg/mL] | MIC (Klebsiella pneumoniae) [µg/mL] | MIC [6] [µg/mL] | MIC (Streptococcus pyogenes) [µg/mL] | also measured
1 | O=C(O)c1cn(C2CC2)c2cc(N3CCNCC3)c(F)cc2c1=O [CIPROFLOXACIN] |  | 0.39 (≈ 1.18 µM) | 0.2 (≈ 0.604 µM) | 0.1 (≈ 0.302 µM) | 0.05 (≈ 0.151 µM) | 1.56 (≈ 4.71 µM) | 0.2 (≈ 0.604 µM) | 0.1 (≈ 0.302 µM) | 0.02 (≈ 0.0604 µM) | 0.39 (≈ 1.18 µM) | 0.39 (≈ 1.18 µM) | ED50 (Escherichia coli [7]): 1.9 mg/kg; ED50 (Staphylococcus aureus [8]): 15.5 mg/kg; ED50 (Pseudomonas aeruginosa [9]): 13.3 mg/kg; ED50 (Escherichia coli [10]): 0.2 mg/kg; ED50 (Pseudomonas aeruginosa [11]): 2.1 mg/kg; ED50 (Staphylococcus aureus [12]): 1.6 mg/kg
2 | CCn1cc(C(=O)O)c(=O)c2cc(F)c(N3CCNCC3)cc21 [NORFLOXACIN] | 0.1 (≈ 0.313 µM) | 0.78 (≈ 2.44 µM) | 0.78 (≈ 2.44 µM) | 0.39 (≈ 1.22 µM) | 0.2 (≈ 0.626 µM) | 6.2 (≈ 19.4 µM) | 0.78 (≈ 2.44 µM) | 0.39 (≈ 1.22 µM) | 0.1 (≈ 0.313 µM) | 1.56 (≈ 4.89 µM) | 3.1 (≈ 9.71 µM) | 
3 | Cl.O=C(O)c1cn(-c2ccc(F)cc2)c2cc(N3CCNCC3)c(F)cc2c1=O [SARAFLOXACIN HYDROCHLORIDE] | 0.05 | 0.2 | 1.56 | 0.39 | 0.2 | 0.2 | 0.2 | 0.39 | 0.02 | 0.39 | 0.78 | MIC (Pseudomonas aeruginosa [13]): 0.39 µg/mL; ED50 (Staphylococcus aureus [14]): 1.6 mg/kg; ED50 (Pseudomonas aeruginosa [15]): 21.4 mg/kg; ED50 (Pseudomonas aeruginosa [16]): 1.6 mg/kg; ED50 (Escherichia coli [17]): 4.3 mg/kg; ED50 (Escherichia coli [18]): 0.6 mg/kg; ED50 mg/kg (Escherichia coli [19]): 6.5

Further lines, with some results ahead:

Row | MIC (Escherichia coli [3]) [µg/mL] | Compound | MIC (Staphylococcus aureus [1]) [µg/mL] | MIC (Enterococcus faecium) [µg/mL] | MIC (Pseudomonas aeruginosa [2]) [µg/mL] | MIC (Klebsiella aerogenes) [µg/mL] | MIC (Acinetobacter) [µg/mL] | MIC (Staphylococcus aureus [4]) [µg/mL] | MIC (Pseudomonas aeruginosa [5]) [µg/mL] | MIC (Klebsiella pneumoniae) [µg/mL] | MIC [6] [µg/mL] | MIC (Streptococcus pyogenes) [µg/mL] | also measured
4 | 0.2 (≈ 0.496 µM) | NC1CCN(c2c(F)cc3c(=O)c(C(=O)O)cn(-c4ccc(F)cc4)c3c2F)C1 (stereo not drawn) | 0.2 (≈ 0.496 µM) | 3.1 (≈ 7.69 µM) | 1.56 (≈ 3.87 µM) | 0.2 (≈ 0.496 µM) | 0.78 (≈ 1.93 µM) | 0.2 (≈ 0.496 µM) | 3.1 (≈ 7.69 µM) | 0.05 (≈ 0.124 µM) | 0.39 (≈ 0.967 µM) | 1.56 (≈ 3.87 µM) | 
5 | 0.02 (≈ 0.0519 µM) | NC1CCN(c2cc3c(cc2F)c(=O)c(C(=O)O)cn3-c2ccc(F)cc2)C1 (stereo not drawn) | 0.05 (≈ 0.13 µM) | 0.78 (≈ 2.02 µM) | 0.2 (≈ 0.519 µM) | 0.05 (≈ 0.13 µM) | 0.2 (≈ 0.519 µM) | 0.05 (≈ 0.13 µM) | 0.2 (≈ 0.519 µM) | 0.02 (≈ 0.0519 µM) | 0.05 (≈ 0.13 µM) | 0.1 (≈ 0.259 µM) | 
6 | 0.2 (≈ 0.501 µM) | CN1CCN(c2cc3c(cc2F)c(=O)c(C(=O)O)cn3-c2ccc(F)cc2)CC1 [DIFLOXACIN] | 0.2 (≈ 0.501 µM) | 1.56 (≈ 3.91 µM) | 1.56 (≈ 3.91 µM) | 0.78 (≈ 1.95 µM) | 0.78 (≈ 1.95 µM) | 0.2 (≈ 0.501 µM) | 0.78 (≈ 1.95 µM) | 0.1 (≈ 0.25 µM) | 0.39 (≈ 0.976 µM) | 1.56 (≈ 3.91 µM) | 
